For eight compounds, GI50 and TGI results are on record in PubChem BioAssay (NCI).

Some test systems named below: CAKI-1 renal; COLO 205 colon; EKVX NSCLC; HS 578T breast; LOX IMVI melanoma; MCF7 breast; NCI-H23 lung; NCI-H522 lung; OVCAR-8 ovarian; UO-31 renal.
Holding throughout (assay): growth of human tumour cells (NCI), 48 h

Where “and” joins values, the source holds several entries; their conditions need not be identical. Equal entries are not always repeated.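 Following 48 hours of exposure in 96-well plates, responses at five concentrations were used to interpolate endpoints linearly. GI50 marks 50% less growth. At the TGI there is no net growth.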

On to `Cn1c2ccc(Br)cc2c2c3c(c4c5ccccc5[nH]c4c21)C(=O)N(O)C3=O`, for which the GI50 in the assay with CAKI-1 renal is 0.22 µM; in the assay on COLO 205 colon it was 0.231 µM; in the assay with EKVX NSCLC it was 0.232 µM; in the assay with HS 578T breast, 0.291 µM; in the assay on LOX IMVI melanoma it was 0.0537 µM; with MCF7 breast it was 0.04 µM. In addition, the GI50 with NCI-H23 lung was 0.0872 µM; in the assay with NCI-H522 lung, 0.0506 µM; with OVCAR-8 ovarian, 0.149 µM; in the assay on UO-31 renal, 0.0917 µM. Moreover, the TGI in the assay with CAKI-1 renal came out at 0.885 µM; in the assay on COLO 205 colon, 0.73 µM; in the assay on EKVX NSCLC it was 0.896 µM; in the assay with HS 578T breast, 1.04 µM; in the assay with LOX IMVI melanoma it was 0.193 µM; in the assay on MCF7 breast, 0.309 µM. Moreover, the TGI in the assay on NCI-H23 lung is 0.398 µM; with NCI-H522 lung, 0.286 µM; in the assay on OVCAR-8 ovarian, 0.683 µM; in the assay on UO-31 renal, 0.308 µM.

`COc1nc(N)nc2c1ncn2C1OC(CO)C(O)C1O` (stereo not given): the GI50 in the assay with CAKI-1 renal was 3120 µM; in the assay on COLO 205 colon, 520 µM; in the assay with EKVX NSCLC, over 5000 µM; in the assay with HS 578T breast, over 5000 µM; in the assay on LOX IMVI melanoma it was 3540 µM; in the assay with MCF7 breast it was 3800 µM. In addition, the GI50 was 909 µM in the assay with NCI-H23 lung, over 5000 µM with NCI-H522 lung, over 5000 µM in the assay with OVCAR-8 ovarian and over 5000 µM in the assay on UO-31 renal. For the same compound, the TGI in the assay on CAKI-1 renal was over 5000 µM; in the assay with COLO 205 colon, 2250 µM; in the assay with EKVX NSCLC, over 5000 µM; in the assay on HS 578T breast it was over 5000 µM; in the assay with LOX IMVI melanoma, over 5000 µM; in the assay with MCF7 breast, over 5000 µM. The TGI in the assay with NCI-H23 lung, in the assay on NCI-H522 lung, in the assay with OVCAR-8 ovarian and in the assay on UO-31 renal was over 5000 µM in each case.

As for `CC1(CCC(=O)OC2CCCCC2)OCCO1`, the TGI in the assay on CAKI-1 renal, in the assay on COLO 205 colon, with EKVX NSCLC, in the assay on HS 578T breast, in the assay on LOX IMVI melanoma and with MCF7 breast was over 100 µM each time. Also, the TGI with NCI-H23 lung, in the assay on NCI-H522 lung, in the assay on OVCAR-8 ovarian and in the assay on UO-31 renal was over 100 µM each time.

Consider `Cc1ccc(C)c(C2NC(=O)c3ccccc3N2)c1` (stereo not given), for which the TGI was 35.3 µM in the assay with CAKI-1 renal; 7.06 µM with COLO 205 colon; over 100 µM in the assay on EKVX NSCLC; 7.73 µM in the assay with HS 578T breast; over 100 µM in the assay with LOX IMVI melanoma; over 84.5 µM in the assay on MCF7 breast. The TGI in the assay with NCI-H23 lung was over 62.1 µM; with NCI-H522 lung it was 3.52 µM; in the assay with OVCAR-8 ovarian it was over 79.6 µM; with UO-31 renal, over 100 µM.

Take `COc1cc(Nc2nc3ccccc3cc2C(=O)Nc2ccc(F)c(F)c2)cc(OC)c1OC`: the GI50 in the assay with CAKI-1 renal was 2.72 µM; in the assay with COLO 205 colon it was 1.77 µM; with EKVX NSCLC it was 2.87 µM; in the assay with HS 578T breast, 2.8 µM; in the assay with LOX IMVI melanoma, 2.66 µM; in the assay on MCF7 breast, 2.16 µM. The GI50 was 2.84 µM in the assay with NCI-H23 lung, 2.07 µM with NCI-H522 lung, 2.77 µM with OVCAR-8 ovarian and 2.51 µM in the assay on UO-31 renal. For the same compound, the TGI in the assay with CAKI-1 renal is over 100 µM; with COLO 205 colon, 3.78 µM; in the assay on EKVX NSCLC, over 100 µM; in the assay with HS 578T breast, 13.6 µM; in the assay on LOX IMVI melanoma it was 8.75 µM; with MCF7 breast, 8.4 µM. The TGI stood at 8.51 µM in the assay with NCI-H23 lung, 6.97 µM with NCI-H522 lung, 7.85 µM in the assay on OVCAR-8 ovarian and 9.35 µM with UO-31 renal.

As to `CN1C(=O)N[C@H]2[C@@H]3NC(=O)c4ccc(Br)n4[C@@H]3C[C@]21O`, the GI50 in the assay with CAKI-1 renal was 2.4 µM; in the assay with COLO 205 colon, 0.0832 µM; in the assay on EKVX NSCLC it was 0.868 µM; with HS 578T breast, 0.102 µM; in the assay with LOX IMVI melanoma, 0.369 µM; with MCF7 breast, 0.0281 µM. Besides, the GI50 with NCI-H23 lung is 0.0968 µM; in the assay with NCI-H522 lung it was 0.0384 µM; in the assay on OVCAR-8 ovarian it was 0.259 µM; in the assay with UO-31 renal, 1.81 µM. Moreover, the TGI in the assay on CAKI-1 renal worked out at 13.1 µM; in the assay on COLO 205 colon, 1.18 µM; in the assay on EKVX NSCLC it was 4.98 µM; in the assay with HS 578T breast, 1.42 µM; with LOX IMVI melanoma it was 3.37 µM; in the assay on MCF7 breast it was 1.08 µM. For the same compound, the TGI in the assay with NCI-H23 lung came out at 1.42 µM; in the assay on NCI-H522 lung, 0.31 µM; in the assay with OVCAR-8 ovarian, 1.93 µM; with UO-31 renal, 6.75 µM.

Consider `C=C(Nc1ccc([N+](=O)[O-])cc1[N+](=O)[O-])c1c/c(=N\NC(N)=S)c2ccccc2o1`, for which the TGI in the assay with CAKI-1 renal, with COLO 205 colon, in the assay with EKVX NSCLC, with HS 578T breast, in the assay with LOX IMVI melanoma and in the assay with MCF7 breast was over 100 µM in each case. The TGI with NCI-H23 lung, in the assay with NCI-H522 lung, in the assay on OVCAR-8 ovarian and in the assay with UO-31 renal was over 100 µM throughout.

Turning to `Cc1sc2c(c1C)C(c1ccc(Cl)cc1)=N[C@@H](CC(=O)OC(C)(C)C)c1nnc(C)n1-2`, the GI50 was 0.0513 µM and 0.0532 µM in the assay with CAKI-1 renal; 0.378 µM and 0.143 µM in the assay with COLO 205 colon; 3.17 µM and 1.18 µM in the assay with EKVX NSCLC; 0.139 µM and 0.0567 µM in the assay with HS 578T breast; 0.22 µM and 0.0673 µM in the assay on LOX IMVI melanoma; 0.117 µM and 0.06 µM with MCF7 breast. The GI50 with NCI-H23 lung is 0.45 µM and 0.28 µM; in the assay on NCI-H522 lung, 0.179 µM and 0.0566 µM; in the assay on OVCAR-8 ovarian, 0.875 µM and 0.62 µM; in the assay on UO-31 renal, 0.0634 µM and 0.0301 µM. Moreover, the TGI in the assay with CAKI-1 renal is 18.2 µM and 15.1 µM; in the assay on COLO 205 colon, 11.7 µM and 3.8 µM; in the assay on EKVX NSCLC it was 20.5 µM and 18.2 µM; with HS 578T breast, 18.4 µM and 18.1 µM; with LOX IMVI melanoma, 11.2 µM and 13.9 µM; with MCF7 breast, 17.9 µM and 13.6 µM. The TGI is 18.7 µM and 18.6 µM in the assay on NCI-H23 lung; 7.38 µM and 11.6 µM in the assay on NCI-H522 lung; 26.8 µM and 20.5 µM in the assay on OVCAR-8 ovarian; 13.8 µM and 14.2 µM in the assay with UO-31 renal.
